# System: not given
# Assay: not given
# Details: not given
row,Compound,melting point [°C]
1,"Cn1nccc1C(C)(O)c1cccs1 (stereo not drawn) [Example 21, 5-[1-hydroxy-1-(2-thienyl)ethyl]-1-methyl-1H-pyrazol]",130 to 131

# System: Male Swiss mice
# Assay: Analgesic activity: inhibition of contortions induced by phenylbenzoquinone in mice (Siegmund method)
# Type: in vivo
# Details: 160 mg/Kg, oral administration, 60 minutes before i.p. phenylbenzoquinone; contortions counted for 15 minutes; versus vehicle control
# Description: Analgesic Activity: Inhibition of Contortions Induced by Phenylbenzoquinone in Mice
# The method described by Siegmund (E. Siegmund, et al, Proc. Exp. Biol. Med., 1957, 95, 729) has been used. Male Swiss mice are used, weighing between 17 and 22 grams and in groups of at least four animals.
# The contortions are induced by injecting i.p. phenyl-p-benzoquinone (25 ml/Kg of a solution of 0.02% ethanol/water −5% v/v—with Evans blue at a mixing ratio of 0.1% p/v). The contortions are counted for 15 minutes after the moment of the injection. The products to be tested are suspended in Arabic gum (5% p/v) and distilled water and administered orally, at a dosage of 160 mg/Kg, 60 minutes before the phenylbenzoquinone injection. The inhibition of contortions produced by each product is determined, taking the contortions of a group of animals given a control as a reference. These animals only receive the vehicle orally, 60 minutes before administration of phenylbenzoquinone.
row,Compound,% Inhibition of contortions [%]
1,"CN(C)CCOC(c1cccs1)c1ccnn1C.O=C(O)CC(O)(CC(=O)O)C(=O)O (stereo not drawn) [Example 12, Citrate of (+)-5-{α-[2-(dimethylamino)ethoxy]-2-thienylmethyl}-1-methyl-1H-pyrazol]",52
2,"CN(C)CCOC(c1cccs1)c1ccnn1C.O=C(O)CC(O)(CC(=O)O)C(=O)O (stereo not drawn) [Example 13, Citrate of (−)-5-{α-[2-(dimethylamino)ethoxy]-2-thienylmethyl}-1-methyl-1H-pyrazol]",87
3,"CN(C)CCOC(C)(c1cccs1)c1ccnn1C (stereo not drawn) [Example 9, 5-{1-[2-(dimethylamino)ethoxy]-1-(2-thienyl)ethyl}-1-methyl-1H-pyrazol]",37
4,"CN(C)CCOC(c1cccs1)c1ccnn1C.O=C(O)CC(O)(CC(=O)O)C(=O)O (stereo not drawn) [Example 2, Citrate of 5-{α-[2-(dimethylamino)ethoxy]-2-thienylmethyl}-1-methyl-1H-pyrazol]",65
5,"CN(C)CCOC(c1cccs1)c1ccnn1C (stereo not drawn) [Example 1, 5-{α-[2-(dimethylamino)ethoxy]-2-thienylmethyl}-1-methyl-1H-pyrazol]",71
6,"CC(=O)Oc1ccccc1C(=O)O [Acetylsalicylic acid, reference compound]",51
7,"CC(=O)Nc1ccc(O)cc1 [N-acetyl-p-aminophenol, reference compound]",34
8,"Cc1ccsc1C(OCCN(C)C)c1ccnn1C (stereo not drawn) [Example 5, 5-{α-[2-(dimethylamino)ethoxy]-3-methyl-2-thienylmethyl}-1-methyl-1H-pyrazol]",45

# Source: patent US7129361B2, “Thienylazolylalkoxyethanamines, their preparation and their application as medicaments” (Laboratorios del Dr. Esteve, S.A., priority 1998, dated 2006)
